Where two headings read alike, the source gives them in different places.
Assays:
[1] = in vitro; design: species or system DENV2proHeLa (HeLa); conditions: human, denv2prohela cells
[2] = target: T1, DENV2proHeLa NS2B-NS3 protease (Dengue virus 2 Thailand/16681/84, UniProt P29990); assay: cell-based; design: species or system DENV2proHeLa (HeLa); conditions: HeLa, read-out: % inhibition
[3] = target: T1, DENV2proHeLa NS2B-NS3 protease; assay: cell-based
[4] = target: T2, NS2B(H)-NS3pro (DENV-2 NS2B-NS3 protease) (Dengue virus 2 Thailand/NGS-C/1944, UniProt P14340); assay: fluorometric protease assay, AMC substrate; format: biochemical; conditions: pH 7.5, HEPES, CHAPS; substrate Bz-nKRR-AMC
T2 sequence (P14340 1394-1433 limits assumed): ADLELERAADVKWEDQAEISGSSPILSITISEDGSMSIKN
T2 sequence (P14340 1476-1660 limits assumed): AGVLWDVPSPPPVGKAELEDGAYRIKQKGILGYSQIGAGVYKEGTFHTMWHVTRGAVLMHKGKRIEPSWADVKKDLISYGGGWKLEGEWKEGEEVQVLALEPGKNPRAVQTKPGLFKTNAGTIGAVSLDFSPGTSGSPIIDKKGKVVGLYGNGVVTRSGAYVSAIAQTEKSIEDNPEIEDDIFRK

[5] = target: T2, NS2B(H)-NS3pro (DENV-2 NS2B-NS3 protease); assay: biochemical; conditions: read-out: % inhibition
[6] = target: T1, DENV2proHeLa NS2B-NS3 protease; assay: cell-based; design: species or system DENV2proHeLa (HeLa); conditions: HeLa, read-out: % inhibition; remark: listed apart in the source
[7] = in vitro; design: species or system DENV2proHeLa (HeLa); conditions: human, denv2prohela cells; remark: listed apart in the source
[8] = target: T1, DENV2proHeLa NS2B-NS3 protease; assay: cell-based; design: species or system DENV2proHeLa (HeLa)
[9] = target: T2, NS2B(H)-NS3pro (DENV-2 NS2B-NS3 protease); assay: biochemical; conditions: read-out: % inhibition; remark: listed apart in the source
[10] = in vitro; design: species or system DENV2proHeLa (HeLa); conditions: human, denv2prohela cells; remark: listed apart in the source
[11] = target: T2, NS2B(H)-NS3pro (DENV-2 NS2B-NS3 protease); conditions: read-out: IC50 (C7.5-HEPES AMC); AMC substrate, HEPES pH 7.5, CHAPS; inhibitor
[12] = target: T1, DENV2proHeLa NS2B-NS3 protease; assay: cell-based; design: species or system DENV2proHeLa (HeLa); conditions: HeLa, read-out: % inhibition; remark: listed apart in the source
[13] = target: T1, DENV2proHeLa NS2B-NS3 protease; assay: cell-based; design: species or system DENV2proHeLa (HeLa); remark: listed apart in the source
[14] = test system: DENV-2; assay: microbe, parasite or virus in culture; conditions: Dengue virus, DENV2, Vero, 48 h, read-out: % inhibition
[15] = target: T1, DENV2proHeLa NS2B-NS3 protease; assay: cell-based; design: species or system DENV2proHeLa (HeLa); conditions: HeLa, read-out: % inhibition; remark: listed apart in the source
[16] = in vitro; design: species or system DENV2proHeLa (HeLa); conditions: human, denv2prohela cells; remark: listed apart in the source
[17] = target: T2, NS2B(H)-NS3pro (DENV-2 NS2B-NS3 protease); conditions: read-out: IC50 (C7.5-HEPES AMC); AMC substrate, HEPES pH 7.5, CHAPS; inhibitor; remark: listed apart in the source
[18] = read-out: DENV2proHeLa EC50, inhibitor

T1 sequence (P29990 1476-2093 limits assumed): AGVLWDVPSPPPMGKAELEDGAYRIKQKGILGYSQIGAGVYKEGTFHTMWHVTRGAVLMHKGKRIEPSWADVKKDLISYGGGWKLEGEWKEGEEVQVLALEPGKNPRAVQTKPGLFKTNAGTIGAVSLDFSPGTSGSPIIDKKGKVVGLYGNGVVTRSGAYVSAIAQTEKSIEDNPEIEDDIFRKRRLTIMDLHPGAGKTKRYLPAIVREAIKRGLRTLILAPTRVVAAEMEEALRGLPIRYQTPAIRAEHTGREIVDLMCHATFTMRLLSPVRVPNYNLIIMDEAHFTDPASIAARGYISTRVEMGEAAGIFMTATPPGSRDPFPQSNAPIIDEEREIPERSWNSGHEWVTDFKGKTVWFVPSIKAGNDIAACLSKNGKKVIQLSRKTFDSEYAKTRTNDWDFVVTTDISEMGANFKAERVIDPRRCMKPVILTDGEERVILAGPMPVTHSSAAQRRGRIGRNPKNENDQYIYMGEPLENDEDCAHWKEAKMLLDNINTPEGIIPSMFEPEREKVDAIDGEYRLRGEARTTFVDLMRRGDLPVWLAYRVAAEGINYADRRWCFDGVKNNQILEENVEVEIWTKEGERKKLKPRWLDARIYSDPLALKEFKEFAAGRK
T1 sequence (P29990 1346-1475 partner limits assumed): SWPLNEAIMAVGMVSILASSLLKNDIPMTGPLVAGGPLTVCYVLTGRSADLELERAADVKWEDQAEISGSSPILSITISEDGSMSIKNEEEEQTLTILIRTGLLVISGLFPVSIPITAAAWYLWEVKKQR

NC(=O)c1cccc(NC(=O)C(Cc2ccc3ccccc3c2)NC(=O)c2ccc(Oc3ccccc3)cc2)c1 (stereo not shown) [compound 65]
CC50 [1]: > 50 µM
inhibition at 12.5 µM [2]: 55%
EC50 [3]: 7.4 µM
IC50 [4]: 5.9 µM

CC(C)CCC(=O)N1CCC(C(=O)N[C@H](C(=O)Nc2cccc(C(N)=O)c2)c2ccc(OCc3ccccc3)cc2)CC1 [compound 34, 34]
inhibition at 50 µM [5]: 69%
inhibition at 12.5 µM [6]: 53%
CC50 [7]: > 100 µM
EC50 [8]: 11 µM

CC(C(=O)NCC1(CC(=O)N[C@H](C(=O)Nc2cccc(C(N)=O)c2)c2ccc(OCc3ccccc3)cc2)CCCCC1)c1ccc2c(c1)[nH]c1ccc(Cl)cc12 (stereo partly shown) [compound 6, 6]
inhibition at 50 µM [9]: 99%
CC50 [10]: > 50 µM
IC50 [11]: 8 µM
inhibition at 12.5 µM [12]: 60%
EC50 [13, 18]: 2.9 µM

NC(=O)c1cccc(NC(=O)[C@@H](NC(=O)Cc2ccccc2Nc2c(Cl)cccc2Cl)c2ccc(OCc3ccccc3)cc2)c1 [compound 9, 9]
inhibition at 50 µM [9]: 99%
CC50 [10]: > 50 µM
IC50 [11]: 10 µM
inhibition at 12.5 µM [12]: 60%
EC50 [13]: 8.6 µM

CC(CC(=O)N[C@H](C(=O)Nc1cccc(C(N)=O)c1)c1ccc(OCc2ccccc2)cc1)CC(C)(C)C (stereo partly shown) [compound 16]
inhibition at 25 µM [14]: 98%
inhibition at 12.5 µM [15]: 61%
CC50 [16]: ≥ 100 µM
EC50 [3]: 11 µM
IC50 [4]: 11 µM

NC(=O)c1cccc(NC(=O)C(CCc2ccccc2)NC(=O)c2ccc(Oc3ccccc3)cc2)c1 (stereo not shown) [compound 66, 66]
CC50 [1]: > 50 µM
inhibition at 12.5 µM [2]: 67%

NC(=O)c1cccc(NC(=O)C(Cc2ccccc2)NC(=O)c2ccc(Oc3ccccc3)cc2)c1 (stereo not shown) [compound 70, 70]
CC50 [1]: > 50 µM
inhibition at 12.5 µM [2]: 55%

COc1cc(C(=O)N[C@H](C(=O)Nc2cccc(C(N)=O)c2)c2ccc(OCc3ccccc3)cc2)ccc1Oc1ccccc1 [compound 8, 8]
inhibition at 50 µM [9]: 99%
CC50 [10]: > 100 µM
IC50 [11]: 12 µM
inhibition at 12.5 µM [12]: 86%
EC50 [13]: 1.4 µM

NC(=O)c1cccc(NC(=O)[C@@H](NC(=O)c2cc(O)n(-c3ccccc3)n2)c2ccc(OCc3ccccc3)cc2)c1 [compound 27]
inhibition at 12.5 µM [15]: 24%
CC50 [16]: > 50 µM
IC50 [4]: 30 µM

CC(C)Cc1ccc(C(C)C(=O)N[C@H](C(=O)Nc2cccc(C(N)=O)c2)c2ccc(OCc3ccccc3)cc2)cc1 (stereo partly shown) [compound 3, 3]
CC50 [10]: > 25 µM
IC50 [11]: 8 µM
inhibition at 12.5 µM [12]: 84%
EC50 [13]: 3.8 µM

NC(=O)c1cccc(NC(=O)[C@@H](NC(=O)c2ccc(Oc3ccccc3)cc2)c2ccc(OCc3ccccc3)cc2)c1 [compound 1]
IC50 [4]: 13 µM

CC(C(=O)N[C@H](C(=O)Nc1cccc(C(N)=O)c1)c1ccc(OCc2ccccc2)cc1)c1ccccc1 (stereo partly shown) [compound 28, 28]
inhibition at 50 µM [5]: 83%
inhibition at 12.5 µM [6]: 77%
CC50 [7]: > 50 µM
IC50 [17]: 17 µM
EC50 [8]: 8 µM

NC(=O)c1cccc(NC(=O)C(Cc2ccc(NCc3ccccc3)cc2)NC(=O)c2ccc(Oc3ccccc3)cc2)c1 (stereo not shown) [compound 68]
CC50 [1]: > 50 µM
IC50 [4]: 15 µM

NC(=O)c1cccc(NC(=O)[C@@H](NC(=O)c2ccc(-c3ccccc3)o2)c2ccc(OCc3ccccc3)cc2)c1 [compound 5, 5]
inhibition at 25 µM [14]: 96%
inhibition at 50 µM [9]: 100%
CC50 [10]: > 100 µM
IC50 [11]: 9.3 µM
inhibition at 12.5 µM [12]: 85%
EC50 [13, 18]: 5.9 µM

NC(=O)c1cccc(NC(=O)C(NC(=O)c2ccccc2)c2ccc(OCc3ccccc3)cc2)c1 (stereo not shown) [compound 42, 42]
inhibition at 50 µM [5]: 56%
inhibition at 12.5 µM [6]: 80%
CC50 [7]: > 100 µM

CC(C)CC(NC(=O)c1ccc(Oc2ccccc2)cc1)C(=O)Nc1cccc(C(N)=O)c1 (stereo not shown) [compound 73, 73]
CC50 [1]: ≥ 50 µM
inhibition at 12.5 µM [2]: 36%

Cc1nc(-c2ccncc2)sc1C(=O)N[C@H](C(=O)Nc1cccc(C(N)=O)c1)c1ccc(OCc2ccccc2)cc1 [compound 35, 35]
inhibition at 50 µM [5]: 69%
inhibition at 12.5 µM [6]: 78%
CC50 [7]: > 50 µM

COc1ccc(/C=C/C(=O)C(=O)NC(C)(C)C)cc1OC [GG-80-1]
inhibition at 25 µM [14]: 97%

NC(=O)c1cccc(NC(=O)[C@@H](NC(=O)Cc2ccc(Oc3ccccc3)cc2)c2ccc(OCc3ccccc3)cc2)c1 [compound 11, 11]
inhibition at 50 µM [9]: 99%
CC50 [10]: > 50 µM
IC50 [11]: 14 µM
inhibition at 12.5 µM [12]: 78%
EC50 [13]: 6.9 µM

COc1ccc2cc([C@H](C)C(=O)N[C@H](C(=O)Nc3cccc(C(N)=O)c3)c3ccc(OCc4ccccc4)cc3)ccc2c1 [compound 10, 10]
CC50 [10]: > 100 µM
IC50 [11]: 12 µM
inhibition at 12.5 µM [12]: 71%
EC50 [13, 18]: 3.7 µM

NC(=O)c1cccc(NC(=O)[C@@H](NC(=O)c2ccc(Oc3ccccc3)nc2)c2ccc(OCc3ccccc3)cc2)c1 [compound 33]
inhibition at 50 µM [5]: 70%
inhibition at 12.5 µM [6]: 55%
CC50 [7]: > 100 µM
EC50 [3]: 8.8 µM
IC50 [4]: 34 µM

Cc1onc(-c2ccc(F)cc2)c1C(=O)N[C@H](C(=O)Nc1cccc(C(N)=O)c1)c1ccc(OCc2ccccc2)cc1 [compound 29, 29]
inhibition at 50 µM [5]: 82%
inhibition at 12.5 µM [6]: 64%
CC50 [7]: > 50 µM
IC50 [17]: 14 µM

CC(C(=O)N[C@H](C(=O)Nc1cccc(C(N)=O)c1)c1ccc(OCc2ccccc2)cc1)c1cccc(Oc2ccccc2)c1 (stereo partly shown) [compound 4, 4]
inhibition at 25 µM [14]: 85%
inhibition at 50 µM [9]: 100%
CC50 [10]: > 50 µM
IC50 [11]: 9.7 µM
inhibition at 12.5 µM [12]: 86%
EC50 [13, 18]: 4 µM

NC(=O)c1cccc(NC(=O)C(CC2CCCCC2)NC(=O)c2ccc(Oc3ccccc3)cc2)c1 (stereo not shown) [compound 64, 64]
CC50 [1]: 40 µM
inhibition at 12.5 µM [2]: 82%

NC(=O)c1cccc(NC(=O)[C@@H](NC(=O)c2ccc(Nc3ccccc3)cc2)c2ccc(OCc3ccccc3)cc2)c1 [compound 7]
inhibition at 25 µM [14]: < 10%
inhibition at 50 µM [9]: 99%
CC50 [10]: ≥ 100 µM
EC50 [3]: 0.7 µM
inhibition at 12.5 µM [12]: 93%

NC(=O)c1cccc(NC(=O)[C@@H](NC(=O)OCc2ccccc2)c2ccc(OCc3ccccc3)cc2)c1 [compound 36, 36]
inhibition at 12.5 µM [6]: 60%
CC50 [7]: ≥ 50 µM
IC50 [17]: 28 µM
EC50 [8]: 5 µM

CC(C)(C)NC(=O)C(=O)/C=C/c1c[nH]c2ccccc12 [GG-92]
inhibition at 25 µM [14]: 40%

NC(=O)c1cccc(NC(=O)C(CCC(=O)Nc2ccccc2)NC(=O)c2ccc(Oc3ccccc3)cc2)c1 (stereo not shown) [compound 71, 71]
CC50 [1]: > 50 µM
inhibition at 12.5 µM [2]: 45%

From publication doi:10.1101/2024.06.05.597555v1 (biorxiv, 2024)
